Test results: the METLIN SMRT retention time set (Domingo-Almenara et al. 2019)

Assay: gradient 5% acetonitrile 3 min, to 50% in 2 min, to 85% in 15 min, held 3 min, 100 µL/min
Conditions: column: Zorbax Extend-C18 2.1 x 50 mm; eluents: water / acetonitrile, 0.1% formic acid
How it was run: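 Pure standards were run in mixtures of ~100 molecules by HPLC coupled to a quadrupole time-of-flight mass spectrometer. The column was a Zorbax Extend-C18 (2.1 × 50 mm, 1.8 μm) at 100 μL/min, with water and acetonitrile each containing 0.1% formic acid, in positive and negative ionization mode. Dead and dwell volumes were 40 μL and 900 μL. Retention time was taken from computationally picked adduct peaks, each manually inspected, with data collected over 3 months.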

## CC(NC(=O)CN1CN(c2ccccc2)C2(CCN(C(=O)CC(C)(C)C)CC2)C1=O)c1ccccc1 (stereo not given)
  RP-LC retention time: 931 s

## Cc1noc([C@@H]2CN(C(=O)c3cc(C)oc3C)C[C@H]2CO)n1
  RP-LC retention time: 640 s

## CC(C)C(=O)Nc1ccc2c(c1)nc(CN1CCN(C(=O)c3ccco3)CC1)n2C
  RP-LC retention time: 605 s

## CCCNC(=O)C1CCCN(c2ccc(SCC(=O)NCc3ccc(C)cc3)nn2)C1 (stereo not given)
  RP-LC retention time: 656 s

## CCOC(=O)c1c(S(=O)(=O)N2CCC(C(=O)Nc3ccc(Cl)cc3)CC2)c(C)n(C)c1C
  RP-LC retention time: 913 s

## CSc1ccccc1NC(=O)c1cnc2ccc(C)cn2c1=O
  RP-LC retention time: 806 s

## COc1cc(NC(=O)Cn2nc3n(c2=O)CCCCC3)cc(OC)c1OC
  RP-LC retention time: 659 s

## CCOC(=O)C1CCC(CNC(=O)Nc2cc3c(cc2N2CCCC2)n(C)c(=O)n3C)CC1 (stereo not given)
  RP-LC retention time: 638 s

## O=C(Nc1ccccc1F)C1CCc2nc(N3CCOCC3)ncc2C1 (stereo not given)
  RP-LC retention time: 778 s

## O=C(Nc1ccnn1Cc1ccco1)C(c1ccccc1)c1ccccc1
  RP-LC retention time: 926 s

## COCc1cc2nn(CC(=O)N3CCc4ccccc43)c(=O)n2c(-c2ccccc2)n1
  RP-LC retention time: 856 s

## COc1cccc2c(C)nc(NC3=NCN(Cc4cccnc4)CN3)nc12
  RP-LC retention time: 567 s

## Cc1cc(N2CCCCC2)nc(N2CCN(C(=O)c3ccc(-c4ccccc4)cc3)CC2)n1
  RP-LC retention time: 837 s

## CC(=O)N1CCc2cc(N3CC(C(=O)Nc4cccc(Br)c4)CC3=O)ccc21 (stereo not given)
  RP-LC retention time: 780 s

## Cc1onc(-c2ccccc2)c1C(=O)Nc1nc(-c2ccc(F)cc2)cs1
  RP-LC retention time: 1090 s

## Brc1ccc(-c2ccc(CNCC3CCNCC3)o2)cc1
  RP-LC retention time: 597 s

## CC(=O)N1CCc2cc(N3CC(C(=O)Nc4ccc(C)cc4Cl)CC3=O)ccc21 (stereo not given)
  RP-LC retention time: 735 s

## Cc1nnc(SCC(=O)N2c3ccccc3CCc3ccccc32)s1
  RP-LC retention time: 897 s

## Cc1cc(C)c(NC(=O)C2CCN(c3c(C(=O)N4CCCCC4)cnc4snc(C)c34)CC2)c(C)c1
  RP-LC retention time: 927 s

## CCOC(=O)c1c(S(=O)(=O)N2CCC(C(=O)Nc3ccccc3OC)CC2)c(C)n(C)c1C
  RP-LC retention time: 850 s

## O=C(NCCC1CCN(C(=O)Nc2cc(F)ccc2F)CC1)c1ccco1
  RP-LC retention time: 758 s

## CNC(=O)N1CCCC(c2cccc(C(=O)NCc3cccc(Br)c3)c2)C1 (stereo not given)
  RP-LC retention time: 819 s

## Cc1ccc(Nc2c(-c3ccccc3O)nc3ncccn23)cc1C
  RP-LC retention time: 951 s

## CCCNC(=O)N(C1CCOCC1)C1CCN(C(=O)c2ccsc2)CC1
  RP-LC retention time: 680 s

## COc1cc(CNC(=O)C2CCN(c3nc(C4CCC4)nc4csc(C)c34)CC2)cc(OC)c1
  RP-LC retention time: 748 s

## O=C(Cn1c(-c2ccc(F)cc2)nc2ccccc21)N1CCOCC1
  RP-LC retention time: 592 s

## O=C(NC1CCCCC1)C1CCCN(c2ccnc(-c3ccc(F)cc3)n2)C1 (stereo not given)
  RP-LC retention time: 695 s

## CC(NC(=O)c1ccc2c(c1)nc1n2CCN(Cc2ccccc2)C1=O)c1cccnc1 (stereo not given)
  RP-LC retention time: 616 s

## O=C(CCc1cc2ccccc2[nH]c1=O)N1CCN(c2ncccn2)CC1
  RP-LC retention time: 645 s

## CC(C)NC(=O)CN1C(=O)C2CCCCN2c2ccc(S(=O)(=O)N3CCCC3)cc21 (stereo not given)
  RP-LC retention time: 810 s

## O=C(CN1C(=O)C(C(=O)N2CCCC2)Sc2ccccc21)Nc1cccc(Cl)c1 (stereo not given)
  RP-LC retention time: 1080 s

## COc1ccc(NC(=O)C2CCN(S(=O)(=O)c3ccc4c(c3)CCCN4C(C)=O)CC2)cc1
  RP-LC retention time: 780 s

## O=C([C@@H]1C[C@H](F)CN1C(=O)c1ccc(F)cc1)N1CCOCC1
  RP-LC retention time: 608 s

## CCOC(=O)C1CCCN(C(=O)Cn2cnc(-c3cccs3)cc2=O)C1 (stereo not given)
  RP-LC retention time: 684 s

## Cc1onc(-c2ccccc2Cl)c1C(=O)N1CCC2(CC1)CC(=O)c1ccccc1O2
  RP-LC retention time: 858 s

## CCCNC(=O)N1CCCN(C2CCN(Cc3ccccc3)C2=O)CC1 (stereo not given)
  RP-LC retention time: 535 s

## O=C(CCc1nnc2c3cc(-c4ccc(F)cc4)nn3ccn12)NCCc1cccnc1
  RP-LC retention time: 601 s

## COc1ccc(-c2cc3c4nnc(SCC(=O)Nc5cccc(Cl)c5)n4ccn3n2)cc1
  RP-LC retention time: 911 s

## O=C(c1cccnc1)N1CCC(c2noc(-c3cnccn3)n2)C1 (stereo not given)
  RP-LC retention time: 581 s

## CCC(CC)C(=O)N1CCC(N2CCN(CC)C2=O)CC1
  RP-LC retention time: 686 s

## CC(C)c1ccc(NC(=O)CN2C(=O)C(C(=O)N3CCCC3)Sc3ccccc32)cc1 (stereo not given)
  RP-LC retention time: 1140 s

## CCc1ccc(NC(=O)C2CCN(S(=O)(=O)c3cc(C(=O)N4CCOCC4)cs3)CC2)cc1
  RP-LC retention time: 859 s

## COc1cc(OC)cc(N2C(=O)C3N=NN(Cc4nc(-c5ccccc5)no4)C3C2=O)c1 (stereo not given)
  RP-LC retention time: 959 s

## CCN1CCc2ncnc(SCC(=O)Nc3ccc(Cl)cc3C(F)(F)F)c2C1
  RP-LC retention time: 597 s

## CCNc1cc(N2CCCC(CCC(=O)N3CCCN(c4ncccn4)CC3)C2)ncn1 (stereo not given)
  RP-LC retention time: 608 s

## Cc1cccn2cc(-c3cccc(S(=O)(=O)N4CCCCC4)c3)nc12
  RP-LC retention time: 700 s

## COC(=O)c1ccc(Cl)cc1NC(=O)N(C)Cc1nc2cc(C(=O)N(C)C)ccc2n1C
  RP-LC retention time: 705 s

## CCCCN1CCN(S(=O)(=O)c2ccccc2-c2nc(-c3ccc(F)cc3)no2)CC1
  RP-LC retention time: 752 s

## CNS(=O)(=O)c1cccnc1Nc1cccc(C(C)C)c1
  RP-LC retention time: 1080 s

## COc1ccc(CNC(=O)CN2C(=O)CC(c3cccs3)=Nc3ccccc32)cc1
  RP-LC retention time: 863 s

## CCCC(NC(=O)c1cccc(N(C)C)c1)C(=O)Nc1nc2ccccc2[nH]1 (stereo not given)
  RP-LC retention time: 667 s

## Cc1ccc(Nc2c(-c3ccc(O)cc3)nc3cc(C)ccn23)cc1
  RP-LC retention time: 696 s

## Cn1c(N2CCN(C(=O)c3ccc(F)c(F)c3)CC2)cc(=O)n(C)c1=O
  RP-LC retention time: 656 s

## COc1ccc(NC(=O)N2CCC3(CC2)N=C(c2cccc(Cl)c2)C(=O)N3)c(OC)c1
  RP-LC retention time: 856 s

## Cc1cc(-c2nnc(C3CC3)o2)c(C)n1CC(=O)NC(C)c1ccccc1 (stereo not given)
  RP-LC retention time: 790 s

## CCn1c(C(=O)NCCCN2CCOCC2)cc2c(=O)oc3ccccc3c21
  RP-LC retention time: 612 s

## COc1ccc(-n2ccc(=O)c(-c3nc(-c4ccccc4OCc4ccccc4)no3)n2)cc1
  RP-LC retention time: 984 s

## CCOC(=O)c1c(CN2CCOCC2)n(C)c2ccc(O)cc12
  RP-LC retention time: 578 s

## CCCN(CCc1cccs1)C1CCc2c(O)cccc2C1 (stereo not given)
  RP-LC retention time: 757 s

## COc1ccc(C(=O)Nc2ccc(-c3cn4ccc(C)nc4n3)cc2)cc1
  RP-LC retention time: 632 s

## CCC(C)NC(=O)CCn1c(=O)c2ccccc2n2c(=O)n(Cc3cccc(F)c3)nc12 (stereo not given)
  RP-LC retention time: 816 s

## O=C(C(c1ccccc1)n1cccc1)N1CCCC1 (stereo not given)
  RP-LC retention time: 782 s

## COc1ccc(-c2cn3c(CC(=O)N4CCN(Cc5ccccc5)CC4)csc3n2)cc1OC
  RP-LC retention time: 596 s

## COc1ccc2c(CCNC(=O)COc3ccc(Cl)cc3)c[nH]c2c1
  RP-LC retention time: 879 s

## CC(C)CC(=O)N1C[C@H](c2nc(-c3cccnc3)no2)[C@@H](C)C1
  RP-LC retention time: 751 s
